Measured values from publication PMC3264577, “RINL, Guanine Nucleotide Exchange Factor Rab5-Subfamily, Is Involved in the EphA8-Degradation Pathway with Odin” (PLoS ONE, 2012).

B1: FLAG-RIN3 (natural protein, UniProt Q8TB24 1-985, looked up)
chain: MIRHAGAPARGDPTGPVPVVGKGEEEEEEDGMRLCLPANPKNCLPHRRGISILEKLIKTCPVWLQLSLGQAEVARILHRVVAGMFLVRRDSSSKQLVLCVHFPSLNESSAEVLEYTIKEEKSILYLEGSALVFEDIFRLIAFYCVSRDLLPFTLRLPQAILEASSFTDLETIANLGLGFWDSSLNPPQERGKPAEPPRDRAPGFPLVSSLRPTAHDANCACEIELSVGNDRLWFVNPIFIEDCSSALPTDQPPLGNCPARPLPPTSDATSPTSRWAPRRPPPPPPVLPLQPCSPAQPPVLPALAPAPACPLPTSPPVPAPHVTPHAPGPPDHPNQPPMMTCERLPCPTAGLGPLREEAMKPGAASSPLQQVPAPPLPAKKNLPTAPPRRRVSERVSLEDQSPGMAAEGDQLSLPPQGTSDGPEDTPRESTEQGQDTEVKASDPHSMPELPRTAKQPPVPPPRKKRISRQLASTLPAPLENAELCTQAMALETPTPGPPREGQSPASQAGTQHPPAQATAHSQSSPEFKGSLASLSDSLGVSVMATDQDSYSTSSTEEELEQFSSPSVKKKPSMILGKARHRLSFASFSSMFHAFLSNNRKLYKKVVELAQDKGSYFGSLVQDYKVYSLEMMARQTSSTEMLQEIRTMMTQLKSYLLQSTELKALVDPALHSEEELEAIVESALYKCVLKPLKEAINSCLHQIHSKDGSLQQLKENQLVILATTTTDLGVTTSVPEVPMMEKILQKFTSMHKAYSPEKKISILLKTCKLIYDSMALGNPGKPYGADDFLPVLMYVLARSNLTEMLLNVEYMMELMDPALQLGEGSYYLTTTYGALEHIKSYDKITVTRQLSVEVQDSIHRWERRRTLNKARASRSSVQDFICVSYLEPEQQARTLASRADTQAQALCAQCAEKFAVERPQAHRLFVLVDGRCFQLADDALPHCIKGYLLRSEPKRDFHFVYRPLDGGGGGGGGSPPCLVVREPNFL
notes: this molecule is used for it; source: HEK293T, transfected, in lysate

Key:
Rab11a = biological target: T1, Rab11a (Homo sapiens, UniProt P62491); assay: […] metabolic labelling, anti-myc immunoprecipitation, TLC of bound nucleotides; format: cell-based; details: HEK293T cells, mock or RINL co-expression, labelled compound
T1 construct: myc-tagged, expressed in HEK293T, immunoprecipitated
T1 sequence (P62491 2-213): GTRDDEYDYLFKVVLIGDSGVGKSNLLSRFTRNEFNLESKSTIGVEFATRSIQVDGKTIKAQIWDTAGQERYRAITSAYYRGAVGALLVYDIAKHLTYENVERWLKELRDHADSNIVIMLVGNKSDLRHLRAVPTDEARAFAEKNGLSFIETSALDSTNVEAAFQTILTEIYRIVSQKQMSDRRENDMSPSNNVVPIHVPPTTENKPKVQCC

Rab21 [1] = biological target: T2, Rab21 (Homo sapiens, UniProt Q9UL25); assay: as above; format: cell-based; parameters: myc-tagged in HEK293T (cell assay); details: HEK293T cells, 4 h 32Pi; mock or GEF co-expression; labelled compound
T2 sequence (Q9UL25 1-225 limits assumed): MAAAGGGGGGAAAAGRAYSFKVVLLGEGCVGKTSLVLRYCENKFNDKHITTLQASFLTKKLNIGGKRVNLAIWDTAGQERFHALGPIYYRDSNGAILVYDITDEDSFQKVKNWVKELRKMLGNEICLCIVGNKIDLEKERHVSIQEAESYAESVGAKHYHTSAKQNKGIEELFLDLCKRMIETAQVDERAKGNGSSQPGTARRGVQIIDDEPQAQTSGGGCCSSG

Rab22 [2] = biological target: T3, Rab22 (Homo sapiens, UniProt Q9UL26); assay: as above; format: cell-based; parameters: gene RAB22A; myc-tagged in HEK293T (cell assay); details: HEK293T cells, 4 h 32Pi; mock or GEF co-expression; labelled compound
T3 sequence (Q9UL26 1-194): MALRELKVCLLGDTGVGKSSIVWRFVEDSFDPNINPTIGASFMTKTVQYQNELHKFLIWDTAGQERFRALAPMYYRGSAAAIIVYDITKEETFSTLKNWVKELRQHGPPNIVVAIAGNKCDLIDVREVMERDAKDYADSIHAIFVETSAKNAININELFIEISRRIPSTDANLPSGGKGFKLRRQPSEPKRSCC

Rab3a = biological target: T4, Rab3a (Homo sapiens, UniProt P20336); assay: as above; format: cell-based; details: HEK293T cells, mock or RINL co-expression, labelled compound
T4 construct: myc-tagged, expressed in HEK293T, immunoprecipitated
T4 sequence (P20336 1-220): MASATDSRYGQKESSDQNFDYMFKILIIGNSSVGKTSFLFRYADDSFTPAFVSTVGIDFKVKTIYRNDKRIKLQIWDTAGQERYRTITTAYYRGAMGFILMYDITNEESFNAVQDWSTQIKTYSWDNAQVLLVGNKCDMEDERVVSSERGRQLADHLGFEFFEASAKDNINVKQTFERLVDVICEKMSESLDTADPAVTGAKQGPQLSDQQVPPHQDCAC

Rab5b = biological target: T5, Rab5b (Homo sapiens, UniProt P61020); assay: as above; format: cell-based; details: HEK293T cells, 4 h 32Pi; mock or GEF co-expression; labelled compound
T5 construct: GST fusion from E. coli (in vitro); myc-tagged in HEK293T (cell assay)
T5 sequence (P61020 1-215): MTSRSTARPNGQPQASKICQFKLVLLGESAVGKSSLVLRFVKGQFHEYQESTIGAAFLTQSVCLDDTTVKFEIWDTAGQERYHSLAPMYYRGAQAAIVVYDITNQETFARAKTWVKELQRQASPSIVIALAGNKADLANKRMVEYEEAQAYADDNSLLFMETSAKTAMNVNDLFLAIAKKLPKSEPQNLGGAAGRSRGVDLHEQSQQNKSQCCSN

Rab7a = biological target: T6, Rab7a (Homo sapiens, UniProt P51149); assay: as above; format: cell-based; details: HEK293T cells, mock or RINL co-expression, labelled compound
T6 construct: myc-tagged, expressed in HEK293T, immunoprecipitated

Rab31 [3] = biological target: T7, Rab31 (Homo sapiens, UniProt Q13636); assay: as above; format: cell-based; parameters: myc-tagged in HEK293T (cell assay); details: HEK293T cells, 4 h 32Pi; mock or GEF co-expression; labelled compound
T7 sequence (Q13636 1-195): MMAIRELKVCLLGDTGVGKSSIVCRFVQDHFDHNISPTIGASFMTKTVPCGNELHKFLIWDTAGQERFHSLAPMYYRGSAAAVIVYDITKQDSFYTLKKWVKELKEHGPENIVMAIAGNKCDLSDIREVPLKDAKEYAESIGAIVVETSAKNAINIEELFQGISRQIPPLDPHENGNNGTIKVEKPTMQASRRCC

Rab31 [4] = biological target: T7, Rab31; assay: […]GTPgammaS filter binding time course; parameters: GST fusion from E. coli (in vitro); myc-tagged in HEK293T (cell assay); details: 1 µM [35S]GTPgammaS, 30 °C; with or without FLAG-RINL or Rabex-5; labelled compound
Rab21 [5] = biological target: T2, Rab21; assay: […]GTPgammaS filter binding time course; parameters: GST fusion from E. coli (in vitro); myc-tagged in HEK293T (cell assay); details: 1 µM [35S]GTPgammaS, 30 °C; with or without FLAG-RINL or Rabex-5; labelled compound
Rab22 [6] = biological target: T3, Rab22; assay: […]GTPgammaS filter binding time course; parameters: gene RAB22A; GST fusion from E. coli (in vitro); myc-tagged in HEK293T (cell assay); details: 1 µM [35S]GTPgammaS, 30 °C; with or without FLAG-RINL or Rabex-5; labelled compound
[7] = biological target: the molecule itself; assay: not stated; data not shown; tetramers composed of anti-parallel linkages of two parallel dimers

T6 sequence (P51149 2-207): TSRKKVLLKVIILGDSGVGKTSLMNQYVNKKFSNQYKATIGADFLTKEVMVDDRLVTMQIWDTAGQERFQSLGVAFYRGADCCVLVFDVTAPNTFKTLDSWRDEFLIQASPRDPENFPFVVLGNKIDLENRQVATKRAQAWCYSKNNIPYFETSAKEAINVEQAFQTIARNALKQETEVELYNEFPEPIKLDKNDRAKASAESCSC

| Molecule | 32Pi metabolic labelling, anti-myc immunoprecipitation, TLC of bound nucleotides (Rab11a) | 32Pi metabolic labelling, anti-myc immunoprecipitation, TLC of bound nucleotides (Rab21 [1]) | 32Pi metabolic labelling, anti-myc immunoprecipitation, TLC of bound nucleotides (Rab22 [2]) | 32Pi metabolic labelling, anti-myc immunoprecipitation, TLC of bound nucleotides (Rab3a) | 32Pi metabolic labelling, anti-myc immunoprecipitation, TLC of bound nucleotides (Rab5b) | 32Pi metabolic labelling, anti-myc immunoprecipitation, TLC of bound nucleotides (Rab7a) | 32Pi metabolic labelling, anti-myc immunoprecipitation, TLC of bound nucleotides (Rab31 [3]) | [35S]GTPgammaS filter binding time course (Rab31 [4]) | [35S]GTPgammaS filter binding time course (Rab21 [5]) | [35S]GTPgammaS filter binding time course (Rab22 [6]) | stoichiometry N [7] |
| --- | --- | --- | --- | --- | --- | --- | --- | --- | --- | --- | --- |
| Nc1nc2c(ncn2[C@@H]2O[C@H](COP(=O)(O)OP(=O)(O)O)[C@@H](O)[C@H]2O)c(=O)[nH]1 [GDP] | The radioactivity of GTP and GDP was quantified | The radioactivity of GTP and GDP was quantified | The radioactivity of GTP and GDP was quantified | The radioactivity of GTP and GDP was quantified | The radioactivity of GTP and GDP was quantified | The radioactivity of GTP and GDP was quantified | The radioactivity of GTP and GDP was quantified |  |  |  |  |
| Nc1nc2c(ncn2[C@@H]2O[C@H](COP(=O)(O)OP(=O)(O)OP(=O)(O)O)[C@@H](O)[C@H]2O)c(=O)[nH]1 [GTP] |  | RINL significantly increased GTP-Rab21, GTP-Rab22, and GTP-Rab31 formation | RINL significantly increased GTP-Rab21, GTP-Rab22, and GTP-Rab31 formation | The percentages (%) of each GTP-bound Rab member in the metabolically radiolabeled cells are shown | Rab5b was present in a GTP-bound form in mock-transfected cells |  | RINL significantly increased GTP-Rab21, GTP-Rab22, and GTP-Rab31 formation |  |  |  |  |
| Nc1nc2c(ncn2[C@@H]2O[C@H](COP(=O)(O)OP(=O)(O)OP(O)(O)=S)[C@@H](O)[C@H]2O)c(=O)[nH]1 [GTPgammaS] |  |  |  |  |  |  |  | RINL accelerated GTPgammaS binding to Rab22 and Rab31 | Rabex-5 strongly, as opposed to RINL, accelerated GTPgammaS binding to Rab21 | RINL accelerated GTPgammaS binding to Rab22 and Rab31 |  |
| B1 |  |  |  |  |  |  |  |  |  |  | 4 |
